Reference: US11565992B2, “Methods for separation of azeotrope or azeotrope-like compositions of trifluoroiodomethane (CF3I) and trifluoroacetyl chloride (CF3COCI)” (Honeywell International Inc., priority 2020, dated 2023)

What was measured:
[1] = Differential solubility in acetonitrile (PTx method, NRTL model); details: at or near ambient conditions; for solubility in acetonitrile: solvent acetonitrile, from NRTL model generated from the PTx data (FIG. 7)
From the text: Static Vapor-Liquid Equilibrium Methods are a class of experimental techniques that can be used to identify thermodynamic interactions between a solvent (i.e. absorbing species) and a target solute (i.e. species being absorbed). One such technique, known as the PTx method, collects measurements of the total saturation pressure (“P”) exerted by mixtures of known compositions (“x”) at fixed temperatures (“T”) and cell volumes. […] Using data collected from the PTx experiment, as well as pure component properties of constituents of the mixtures, the thermodynamic properties of the mixtures can be accurately characterized by fitting the component's interaction parameters in a well-defined thermodynamic equation; one such equation is the Nonrandom, Two-liquid (NRTL) activity coefficient model by Renon and Prausnitz (Local Compositions in Thermodynamic Excess Functions for Liquid Mixtures, AIChE Journal, Vol. 14, January 1968, pp. 135-144).
(§1) From a well-characterized thermodynamic model (such as NRTL fit against PTx data), solubility curves can be generated. The solubility is defined as the liquid composition of the solute in the liquid phase at saturation, generally as a function of pressure and temperature. By comparing solubility curves for different solutes, the solvent's selectivity (i.e. preference) towards a particular solute can be identified; the larger the selectivity the more the solvent prefers to absorb one species while rejecting the other.
Following the same procedure as described in Example 7A, the PTx behavior of trifluoroiodomethane (CF3I) with acetonitrile and trifluoroacetyl chloride (CF3COCl) with acetonitrile was studied at temperatures of −10° C., 10° C., 30° C., and 50° C. […]
(§2) Using the NRTL model generated from the PTx data, the solubility of both trifluoroiodomethane (CF3I) and trifluoroacetyl chloride (CF3COCl) for a given temperature and pressure can be determined and compared.

[2] = Differential solubility in toluene (PTx method, NRTL model); details: around ambient conditions; for solubility in toluene: solvent toluene, from NRTL model generated from the PTx data (FIG. 5)
From the text: One such technique, known as the PTx method, collects measurements of the total saturation pressure (“P”) exerted by mixtures of known compositions (“x”) at fixed temperatures (“T”) and cell volumes. […] Using data collected from the PTx experiment, as well as pure component properties of constituents of the mixtures, the thermodynamic properties of the mixtures can be accurately characterized by fitting the component's interaction parameters in a well-defined thermodynamic equation; one such equation is the Nonrandom, Two-liquid (NRTL) activity coefficient model by Renon and Prausnitz (Local Compositions in Thermodynamic Excess Functions for Liquid Mixtures, AIChE Journal, Vol. 14, January 1968, pp. 135-144).
as §1
A set of volume calibrated PTx cells were used to measure the solubility characteristics of trifluoroiodomethane (CF3I) in toluene as well as trifluoroacetyl chloride (CF3COCl) in toluene. Mixtures of trifluoroiodomethane (CF3I) and toluene as well as trifluoroacetyl chloride (CF3COCl) and toluene were gravimetrically prepared into evacuated PTx cells. […] Once at equilibrium, recognized when temperature and pressures of each cell remain stable for several hours, the local temperature and saturation pressures of each cell were recorded and adjustments for the next set point were made. […]
as §2

[3] = Differential solubility in mineral oil (PTx method, NRTL model); details: solvent mineral oil; at or near ambient conditions; from NRTL model generated from the PTx data (FIG. 6)
From the text: as §1
Following the same procedure described in Example 7A, the PTx behavior of trifluoroiodomethane (CF3I) with mineral oil and trifluoroacetyl chloride (CF3COCl) with mineral oil was studied at temperatures of 0° C., 20° C., 40° C., and 60° C. Unlike toluene (a single aromatic hydrocarbon entity), the mineral oil solvent comprised a mixture several types of hydrocarbons such as alkanes, cycloalkanes, and others. From the pressure-temperature-composition data, the binary interaction parameters of trifluoroiodomethane (CF3I) with mineral oil and trifluoroacetyl chloride (CF3COCl) with mineral oil for the NRTL activity coefficient model were identified.
as §2

SMILES	selectivity of solvent towards CF3I over CF3COCl ([1]; acetonitrile)	selectivity of solvent towards CF3I over CF3COCl ([2]; toluene)	solubility in acetonitrile [1]	solubility in toluene [2]	solubility in mineral oil [3]
CC#N [acetonitrile]	about 2.5 times	–	–	–	–
Cc1ccccc1 [toluene]	–	about 3.5 times	–	–	–
O=C(Cl)C(F)(F)F [trifluoroacetyl chloride]	–	–	about 15.8 mass %	about 11.6 mass %	about 3.6 mass %
FC(F)(F)I [trifluoroiodomethane]	–	–	about 39.0 mass %	about 40.8 mass %	about 12.2 mass %
